US20100303933A1, “IMMUNOPOTENTIATING COMPOSITION FROM LABISIA PUMILA EXTRACT” (HOLISTA BIOTECH SDN. BHD., priority 2007, published 2010)
Marks after values point to notes of the source that are not given here.

Key:
[1] = system: peritoneal murine macrophages; experiment: Phagocytic response in vitro: heat killed Candida albicans ingested by peritoneal macrophages; format: cell-based; details: 10 μg/ml (Levamisole)
Procedure: Peritoneal macrophage cells (2×10^6) were allowed to adhere to glass cover slip for 90 minutes at 37° C. in 5% CO2 incubator (95% humidity). Simultaneously heat killed Candida albicans cells (100° C., 60 minutes) were opsonized for 90 minutes with 20% autologous serum to promote phagocytosis. The samples were washed with PBS and immediately evaluated microscopically. The percentage and average number of Candida albicans cells (heat killed) ingested by peritoneal murine macrophages was calculated.

skin allograft = experiment: Skin allograft rejection (CMI response); format: in vivo, mice; details: 2.5 mg/kg p.o. (Levamisole)
Procedure: Skin allograft rejection: Mice were employed for the skin transplantation that were administered LPPM/A003 daily for 7 days and the graft rejection time (GRT) was recorded by daily observation of the epithelial survival.

[2] = system: reticuloendothelial system; experiment: Phagocytic response in vivo: clearance of carbon particles from circulation; set-up: species or system mice; details: dose 2.5 mg/ml p.o. (Levamisole)
Procedure: The phagocytic function of the reticuloendothelial system was assayed in groups of six mice each by injecting i.v. 160 mg/kg of 1.6% suspension of gelatin stabilized carbon particles of […] size (Atal et al., 1986). Blood samples were collected before and at intervals varying between 2 to 90 min after carbon injection. An aliquot (10 μL) of blood samples were lysed with 2 mL of 0.1% acetic acid and the transparency determined spectrophotometrically at 675 nm (Uvikon 810, spectrophotometer, Kontron Ltd, Switzerland) as per the method of Hudson and Hay (1980).

How did the “% Phagocytosis In vitro study Mean ± S.E.” value [1] turn out when `c1ccc([C@H]2CN3CCSC3=N2)cc1` [Levamisole] was run?
The value was 43.11 ± 2.92 %.

What about the “Rejection Time Days Mean ± S.E.” value (skin allograft) of the same compound?
Its value is 8.50 ± 0.22 days.

What about the “Graft Rejection (Percent)” value (skin allograft; ↑ hastened) of the same compound?
The value was 34.61^b ↑ Percent.

What about the “% Phagocytosis Ex -In vivo study Mean ± S.E.” value [2] of the same compound?
The value was 1.78 ± 0.11 %.
